From ChEMBL document CHEMBL4043067, “Synthesis and cytotoxic activities of goniothalamins and derivatives” (Bioorg Med Chem, 2017) come the findings set out here.

For series [1], the system named is A549. Description: Antiproliferative activity against human A549 cells after 48 hrs by CellTiter-Glo luminescent cell viability assay. The series is classed as functional, cell-based. The following applies: A549, 48 h. Background: In ATP-based viability assays light output follows the ATP content of the culture.
Series [2] concerns MCF7. The series can be described thus: Antiproliferative activity against human MCF7 cells after 48 hrs by CellTiter-Glo luminescent cell viability assay. It counts as functional, cell-based. The following applies: MCF7, 48 h.
In series [3] the test system is HBL-100. The series can be described thus: Antiproliferative activity against human HBL100 cells after 48 hrs by CellTiter-Glo luminescent cell viability assay. The series is classed as functional, cell-based. The following applies: HBL-100, 48 h.
Series [4] has as its system Saccharomyces cerevisiae. Description: Cytotoxicity against Saccharomyces cerevisiae YRE1001 up to 100 ug/ml after 48 hrs by liquid drug assay.
In series [5] the test system is Saccharomyces cerevisiae. The series can be described thus: Inhibition of Pdr5 ATPase activity in Saccharomyces cerevisiae YRE1001 plasma membranes assessed as residual activity at 500 ug/ml after 20 mins in presence of ATP by colorimetric assay relative to control.
Series [6] has as its system Saccharomyces cerevisiae. The series can be described thus: Inhibition of Pdr5 ATPase activity in Saccharomyces cerevisiae YRE1001 plasma membranes assessed as residual activity at 50 ug/ml after 20 mins in presence of ATP by colorimetric assay relative to control.
For series [7], the system named is Saccharomyces cerevisiae. Description: Inhibition of Pdr5 ATPase activity in Saccharomyces cerevisiae YRE1001 plasma membranes assessed as residual activity at 5 ug/ml after 20 mins in presence of ATP by colorimetric assay relative to control.
Series [8] relates to Saccharomyces cerevisiae. Description: Inhibition of Pdr5 in Saccharomyces cerevisiae YRE1001 plasma membranes assessed as reduction in rhodamine 6G transport by measuring relative fluorescence intensity at 500 ug/ml preincubated with enzyme followed by ATP addition measured for 20 mins by fluorescence assay relative to control. Also on record: scale not given: the % may be the effect or the level left.

Series [9] relates to Saccharomyces cerevisiae. Description: Inhibition of Pdr5 in Saccharomyces cerevisiae YRE1001 plasma membranes assessed as reduction in rhodamine 6G transport by measuring relative fluorescence intensity at 50 ug/ml preincubated with enzyme followed by ATP addition measured for 20 mins by fluorescence assay relative to control. Also on record: scale not given: the % may be the effect or the level left.

The subject of series [10] is Saccharomyces cerevisiae. The series can be described thus: Inhibition of Pdr5 in Saccharomyces cerevisiae YRE1001 plasma membranes assessed as reduction in rhodamine 6G transport by measuring relative fluorescence intensity at 5 ug/ml preincubated with enzyme followed by ATP addition measured for 20 mins by fluorescence assay relative to control. Also on record: scale not given: the % may be the effect or the level left.

Series [11] concerns Saccharomyces cerevisiae. The series can be described thus: Inhibition of Pdr5 ATPase activity in Saccharomyces cerevisiae YRE1001 plasma membranes assessed as residual activity at 250 ug/ml after 20 mins in presence of ATP by colorimetric assay relative to control.
Series [12] deals with Saccharomyces cerevisiae. The series can be described thus: Inhibition of Pdr5 ATPase activity in Saccharomyces cerevisiae YRE1001 plasma membranes assessed as residual activity at 125 ug/ml after 20 mins in presence of ATP by colorimetric assay relative to control.
The test system of series [13] is Saccharomyces cerevisiae. The series can be described thus: Inhibition of Pdr5 ATPase activity in Saccharomyces cerevisiae YRE1001 plasma membranes assessed as residual activity at 13 ug/ml after 20 mins in presence of ATP by colorimetric assay relative to control.
Series [14] relates to Saccharomyces cerevisiae. The series can be described thus: Inhibition of Pdr5 in Saccharomyces cerevisiae YRE1001 plasma membranes assessed as reduction in rhodamine 6G transport by measuring relative fluorescence intensity at 125 ug/ml preincubated with enzyme followed by ATP addition measured for 20 mins by fluorescence assay relative to control. Also on record: scale not given: the % may be the effect or the level left.

In series [15] the test system is Saccharomyces cerevisiae. The series can be described thus: Inhibition of Pdr5 in Saccharomyces cerevisiae YRE1001 plasma membranes assessed as reduction in rhodamine 6G transport by measuring relative fluorescence intensity at 13 ug/ml preincubated with enzyme followed by ATP addition measured for 20 mins by fluorescence assay relative to control. Also on record: scale not given: the % may be the effect or the level left.

By IC50 is commonly meant the concentration that gives 50% inhibition. For the molecule `O=C1CCC[C@H]([C@@H]2C[C@H]2c2ccccc2)O1`, the IC50 in series [1], in series [2] and in [3] was > 100 µM each time. In addition, in series [4], the Activity entry is recorded as “Toxic”.

As to `O=C1C=CC[C@@H](/C=C/c2ccc([N+](=O)[O-])cc2)O1`, the IC50 in series [1], in series [2] and in series [3] was > 100 µM throughout. Besides, in [4], the Activity entry was “Toxic”.

For the molecule `O=C1C=CC[C@@H](/C=C/c2ccc(F)cc2)O1`, the IC50 in [1], in series [2] and in [3] was > 100 µM throughout. Further, the Activity entry in series [4] was “Toxic”; in series [5], 26.3%; in series [6], 40.7%; in [7], 71%; in [8], 10%; in [9], 75%. Further, the Activity in [10] worked out at 99%.

For the molecule `O=C1C=CC[C@@H]([C@H]2C[C@@H]2c2ccccc2)O1`, the IC50 was 15.2 µM in series [1], 68.3 µM in [2] and 34.9 µM in series [3]. Further, the Activity entry in [4] was “Toxic”.

Turning to `O=C1C=CCC(/C=C/c2ccccc2)O1` (racemic), the IC50 in [1] was 34.7 µM; in [2], > 100 µM; in series [3], 22.4 µM. Moreover, the Activity result in series [4] is reported as “Toxic”.

For the molecule `O=C1C=CC[C@H](/C=C/C2CCCCC2)O1`, the IC50 was 31 µM in [1], > 100 µM in [2] and 29 µM in [3]. The Activity entry in series [4] is “Toxic”; in series [5], 56%; in [6], 79%; in series [7], 98%; in [8], -8%; in series [9], 18%. Besides, in series [10], the Activity worked out at 91%.

Consider `C[C@H](Cc1ccccc1)[C@H]1CCCC(=O)O1`, for which the IC50 in series [1], in [2] and in [3] was > 100 µM in each case. For the same molecule, the Activity result in [4] is “Toxic”.

Regarding `O=C1CCC[C@@H]([C@H]2C[C@@H]2c2ccccc2)O1`, the IC50 in series [1], in [2] and in series [3] was > 100 µM each time. Moreover, the Activity result in series [4] is given as “Toxic”.

Turning to `COc1ccc(/C=C/[C@@H]2CC=CC(=O)O2)cc1`, the IC50 is > 100 µM in series [1], 88.7 µM in series [2] and > 100 µM in [3]. Besides, the Activity result in [4] is on record as “Toxic”.

Regarding `O=C1C=CC[C@@H](/C=C/C2CCCCC2)O1`, the IC50 in [1] is 68.6 µM; in series [2] it was > 100 µM; in series [3] it was 48.2 µM. Besides, the Activity result is “Toxic” in series [4]; 53% in series [5]; 74.7% in series [6]; 88% in series [7]; 0% in [8]; 37% in [9]. In series [10], the Activity came to 86%.

For the molecule `O=C1C=CC[C@H]([C@@H]2C[C@H]2c2ccccc2)O1`, the IC50 in [1] was 62.8 µM; in series [2] it was > 100 µM; in [3], 43.4 µM. Besides, in [4], the Activity result is on record as “Toxic”.

As to `O=C1C=CC[C@H](/C=C/c2ccccc2)O1` [GONIOTHALAMIN], the figures for the IC50 in series [1], in series [2] and in series [3] were 5.7 µM, 55.5 µM and 20.9 µM, respectively. The Activity entry in series [4] was “Toxic”; in [5] it was 24.3%; in series [6], 30%; in series [7], 71.7%; in series [8], -2%; in [9] it was 10%. Besides, the Activity in [10] stood at 60%.

Turning to `O=C1C=CC[C@H]([C@H]2C[C@@H]2c2ccccc2)O1`, the IC50 in series [1] amounted to 11.6 µM; in series [2], 48.2 µM; in series [3], 14.4 µM. Further, the Activity entry in series [4] was “Toxic”.

In the case of `C[C@@H](Cc1ccccc1)[C@H]1CCCC(=O)O1`, the IC50 in [1], in series [2] and in series [3] was > 100 µM throughout. For the same molecule, in series [4], the Activity entry is on record as “Toxic”.

For `O=C1C=CC[C@H](/C=C/c2ccc([N+](=O)[O-])cc2)O1`, the values for the IC50 in series [1], in [2] and in series [3] were 15.4 µM, 28.8 µM and 6.7 µM, respectively. In addition, the Activity result in series [4] is “Toxic”; in series [11], 50%; in [12] it was 51%; in series [13] it was 79.3%; in series [14], 21%; in series [15], 54%.

As to `O=C1C=CC[C@H](/C=C/c2ccc(F)cc2)O1`, the IC50 in series [1] amounted to 10.2 µM; in series [2], 76.2 µM; in [3] it was 14.1 µM. The Activity entry in series [4] was “Toxic”.

`COc1ccc(/C=C/[C@H]2CC=CC(=O)O2)cc1`: the IC50 in series [1], in series [2] and in series [3] was > 100 µM throughout. The Activity result in series [4] was “Non-Toxic”; in series [5], 0%; in series [6] it was 8.7%; in series [7], 25.7%; in series [8], 0%; in [9], 4%. For the same molecule, the Activity in series [10] came to 44%.

Regarding `O=C1C=CC[C@@H](/C=C/c2ccccc2)O1`, the IC50 is 70.3 µM in series [1], > 100 µM in series [2] and > 100 µM in series [3]. The Activity result in series [4] is listed as “Toxic”.

As for `O=C1CCC[C@H]([C@H]2C[C@@H]2c2ccccc2)O1`, the IC50 in [1], in series [2] and in series [3] was > 100 µM in each case. Besides, the Activity entry in series [4] is recorded as “Toxic”.
